{"source": "patent US4154727A", "about": "“Dipeptide derivatives and their production” (Shionogi & Co., Ltd., priority 1974, dated 1979)", "key": {"DS male mice [1]": {"tested_on": "DS male mice", "assay": "Taming activity (inhibition of fighting responses)", "type": "in vivo", "conditions": "given 60 minutes prior; inhibition of electroshock-induced fighting responses, 5 pairs of mice", "method": "This test was measured on DS male mice. […] These pairs of mice were selected in the morning and used for drug test in the afternoon. The test compound was administered to both mice of the pairs 60 minutes prior to the experiment. Results were obtained as the mean percentage of inhibition of fighting responses in a group of 5 pairs and shown by ED50 [Tedeschi, et al.: J. Pharmacol Exp. Thev., 125, 28-34 (1959)]."}, "DS male mice [2]": {"tested_on": "DS male mice", "assay": "Rotarod performance activity", "type": "in vivo", "conditions": "fall from rod (5 rotations per minute) within less than 2 minutes; 10 mice per dose", "method": "(3) Rotarod performance activity\nThis test was measured on DS male mice. The mouse was put on a scraped rod of wood, 3 cm in diameter, turning at the rate of five rotations per minute. The mice that could remain on the rod for three or more minutes in successive trials were selected and placed in a group of 10 mice for each dose. If the mouse fell down from the rod within less than 2 minutes, the test compound was considered to be effective. Results were shown by ED50 [Dunham, et al.: J. Am. Pharm. Assoc., 46, 208 (1957)]."}}}
{"smiles": "CN(C(=O)CNC(=O)CN)c1ccc(Cl)cc1C(=O)c1ccccc1Cl.O", "note": "[Compound No. 2, 2-o-chlorobenzoyl-4-chloro-N-methyl-N^α -glycyl-glycinanilide hydrate]", "values": [{"measurement": "Taming activity ED50", "setting": "DS male mice [1]", "result": 3.0, "unit": "mg/kg"}]}
{"smiles": "CN(C(=O)CNC(=O)CN)c1ccc(Cl)cc1C(=O)c1ccccc1F.Cl", "note": "[Compound No. 3, 2-o-fluorobenzoyl-4-chloro-N-methyl-N^α -glycyl-glycinanilide hydrochloride]", "values": [{"measurement": "Rotarod performance ED50", "setting": "DS male mice [2]", "result": 17.0, "unit": "mg/kg"}, {"measurement": "Taming activity ED50", "setting": "DS male mice [1]", "result": 1.6, "unit": "mg/kg"}]}
